Reference: patent US20170013861A1, “BIOLOGICAL FORMULATION FOR COMPLEMENTING AN ANIMAL FEED, PROCESS FOR OBTAINING A BIOLOGICAL FORMULATION FOR AN ANIMAL FEED AND AN ANIMAL FEED” (PHB INDUSRIAL S.A., priority 2014, published 2017)

What was measured:
[1] = test system: broiler chickens; assay: Feed complementation for broiler chickens, initial growing cycle, 1 to 21 days (Example 5); assay type: in vivo; conditions: 0 to 21 days
Excerpt: For this study it was used 336 chickens, males of Cobb lineage 500, received with one day of life. The chickens were housed in 28 cages, with 12 chickens being in each experimental unit. These chickens were submitted to 7 different treatments, each with 4 repetitions, distributed randomly in 7 blocks of 4 experimental units, with two daily observations being made, in order to evaluate the general conditions of the batch, such as temperature, illumination, water, feed and conditions of the bed of each one of the boxes.
The treatments of each batch of chickens were based on a pattern feed. Using this basal feed, the different treatments were developed as follows:
The quantity of formulation applied in the feeds presented as reference the used quantity of butyrates/feed ton, that is, within the interval from 200 g/feed ton to 1.000 g/feed ton.
The results obtained with these different treatments are related in the Table—Average weight, average weight gain, average feed consumption, alimentary conversion and mortality during the experimental period from 0 to 21 days: […]

[2] = test system: broiler chickens; assay: Feed complementation for broiler chickens, whole productive cycle, 1 to 42 days (Example 6); assay type: in vivo; conditions: for Alimentary conversion / Average weight gain (GPM)/chicken / Feed consumption / GPD / % death: 0 to 42 days; for % death: broiler chickens; for Average weight (PM)/chicken, PM2: final weight, 42 days
Excerpt: For this study there were used 2.352 chickens, males of the Cobb lineage 500, received with one day of life. The chickens were housed in 42 boxes, with 56 chickens being in each experimental unit. These chickens were submitted to different treatments, distributed randomly in 06 blocks of 07 experimental units, with two daily observations being made, in order to evaluate the general conditions of the batch, such as temperature, illumination, water, feed and conditions of the bed of each one of the boxes.
The treatments of each chicken batch were based on a pattern feed, with the following composition:
From this basal feed, the different treatments were developed as follows:
The results obtained with these different treatments are shown in the Table—Average weight, average weight gain, average feed consumption, alimentary conversion and mortality during the experimental period from 0 to 42 days: […]

Q: `CCCC(=O)[O-].[Na+]` [Treatment T2, sodium butyrate] was tested. Which Alimentary conversion [1] did it give?
A: 1.371

Q: And the Accumulated mortality % ([1]; broiler chickens)?
A: 10.41%

Q: What about the Alimentary conversion [2] of the same molecule?
A: 1.789

Q: What about the “Average weight gain (GPM)/chicken” value [2] of the same molecule?
A: 2.709 abc kg

Q: And the Feed consumption [2]?
A: 5.058 kg

Q: And the GPD [2]?
A: 65.5 a g/day

Q: What about the “% death” value [2] of the same molecule?
A: 6.47%

Q: What about the “Average weight (PM)/chicken, PM2” value [2] of the same molecule?
A: 2.753 abc kg

Q: What does the source list for “calcium butyrate [T3 - Ca, butyrate 45%]”?
A: Alimentary conversion [2]: 1.874; Average weight gain (GPM)/chicken [2]: 2.655 bc kg; Feed consumption [2]: 5.116 kg; GPD [2]: 64.3 b g/day; % death [2]: 4.91%; Average weight (PM)/chicken, PM2 [2]: 2.699 c kg
